Results: PubChem BioAssay AID1259407 (Chemical Carcinogenesis Research Information System (CCRIS), 2018)
Calls of active or inactive are those of the source. The rule behind the calls is not given here.

Test system: CCRIS mutagenicity, Ames/micronucleus/aberration tests
Experiment: CCRIS mutagenicity studies

## O=C1c2ccccc2C(=O)c2ccccc21
End Point: IN VIVO MICRONUCLEUS, Test System: BONE MARROW POLYCHROMATIC ERYTHROCYTES, Species: MOUSE, Strain/Sex: B6C3F1/MALE, Route: IP INJECTION IN CORN OIL
  mutagenic call: inactive; negative
End Point: IN VIVO MICRONUCLEUS, Test System: PERIPHERAL BLOOD ERYTHROCYTES, Species: MOUSE, Strain/Sex: B6C3F1/MALE, FEMALE, Route: DIET
  mutagenic call: active; positive (at highest dose); (99.8% pure)
Test System: AMES SALMONELLA TYPHIMURIUM, Strain/Indicator: TA97, Metabolic Activation: NONE, Method: STANDARD PLATE
  mutagenic call: inactive; negative
Test System: AMES SALMONELLA TYPHIMURIUM, Strain/Indicator: TA97, Metabolic Activation: RAT, LIVER, S-9, PCB, Method: STANDARD PLATE
  mutagenic call: inactive; negative
Test System: AMES SALMONELLA TYPHIMURIUM, Strain/Indicator: TA98, Metabolic Activation: HAMSTER, LIVER, S-9, AROCLOR 1254, Method: STANDARD PLATE
  mutagenic call: inactive; negative
Test System: AMES SALMONELLA TYPHIMURIUM, Strain/Indicator: TA98, Metabolic Activation: NONE, Method: STANDARD PLATE
  mutagenic call: inactive; negative
Test System: AMES SALMONELLA TYPHIMURIUM, Strain/Indicator: TA98, Metabolic Activation: RAT LIVER S-9, AROCLOR, Method: STANDARD PLATE
  mutagenic call: inactive; negative
Test System: AMES SALMONELLA TYPHIMURIUM, Strain/Indicator: TA98, Metabolic Activation: RAT LIVER S-9, PHENOBARBITAL AND BETA-NAPHTHOFLAVONE (30%), Method: PREINCUBATION
  mutagenic call: inactive; negative
Test System: AMES SALMONELLA TYPHIMURIUM, Strain/Indicator: TA98, Metabolic Activation: RAT LIVER S-9, PHENOBARBITAL AND BETA-NAPHTHOFLAVONE, Method: PREINCUBATION
  mutagenic call: inactive; negative
Test System: AMES SALMONELLA TYPHIMURIUM, Strain/Indicator: TA98, Metabolic Activation: RAT, LIVER S-9, AROCLOR 1254 (10%, 30%), Method: PREINCUBATION
  mutagenic call: inactive; negative; 99.8% pure
Test System: AMES SALMONELLA TYPHIMURIUM, Strain/Indicator: TA98, Metabolic Activation: RAT, LIVER, S-9, AROCLOR 1254, Method: STANDARD PLATE
  mutagenic call: inactive; negative
Test System: AMES SALMONELLA TYPHIMURIUM, Strain/Indicator: TA98, Metabolic Activation: RAT, LIVER, S-9, PCB, Method: STANDARD PLATE
  mutagenic call: inactive; negative
Test System: AMES SALMONELLA TYPHIMURIUM, Strain/Indicator: TA100, Metabolic Activation: HAMSTER, LIVER, S-9, AROCLOR 1254, Method: STANDARD PLATE
  mutagenic call: inactive; negative
Test System: AMES SALMONELLA TYPHIMURIUM, Strain/Indicator: TA100, Metabolic Activation: NONE, Method: STANDARD PLATE
  mutagenic call: inactive; negative
Test System: AMES SALMONELLA TYPHIMURIUM, Strain/Indicator: TA100, Metabolic Activation: RAT LIVER S-9, AROCLOR, Method: STANDARD PLATE
  mutagenic call: inactive; negative
Test System: AMES SALMONELLA TYPHIMURIUM, Strain/Indicator: TA100, Metabolic Activation: RAT LIVER S-9, PHENOBARBITAL AND BETA-NAPHTHOFLAVONE (30%), Method: PREINCUBATION
  mutagenic call: inactive; negative
Test System: AMES SALMONELLA TYPHIMURIUM, Strain/Indicator: TA100, Metabolic Activation: RAT LIVER S-9, PHENOBARBITAL AND BETA-NAPHTHOFLAVONE, Method: PREINCUBATION
  mutagenic call: inactive; negative
Test System: AMES SALMONELLA TYPHIMURIUM, Strain/Indicator: TA100, Metabolic Activation: RAT, LIVER S-9, AROCLOR 1254 (10%, 30%), Method: PREINCUBATION
  mutagenic call: inactive; negative; 99.8% pure
Test System: AMES SALMONELLA TYPHIMURIUM, Strain/Indicator: TA100, Metabolic Activation: RAT, LIVER, S-9, AROCLOR 1254, Method: STANDARD PLATE
  mutagenic call: inactive; negative
Test System: AMES SALMONELLA TYPHIMURIUM, Strain/Indicator: TA100, Metabolic Activation: RAT, LIVER, S-9, PCB, Method: STANDARD PLATE
  mutagenic call: inactive; negative
Test System: AMES SALMONELLA TYPHIMURIUM, Strain/Indicator: TA102, Metabolic Activation: NONE, Method: PREINCUBATION
  mutagenic call: inactive; negative; 100% pure
Test System: AMES SALMONELLA TYPHIMURIUM, Strain/Indicator: TA102, Metabolic Activation: RAT, LIVER, S-9, AROCLOR 1254 (10%), Method: PREINCUBATION
  mutagenic call: inactive; negative; 100% pure
Test System: AMES SALMONELLA TYPHIMURIUM, Strain/Indicator: TA102, Metabolic Activation: RAT, LIVER, S-9, AROCLOR 1254, Method: STANDARD PLATE
  mutagenic call: inactive; negative
Test System: AMES SALMONELLA TYPHIMURIUM, Strain/Indicator: TA1535, Metabolic Activation: HAMSTER, LIVER, S-9, AROCLOR 1254, Method: STANDARD PLATE
  mutagenic call: inactive; negative
Test System: AMES SALMONELLA TYPHIMURIUM, Strain/Indicator: TA1535, Metabolic Activation: NONE, Method: PREINCUBATION
  mutagenic call: inactive; negative
Test System: AMES SALMONELLA TYPHIMURIUM, Strain/Indicator: TA1535, Metabolic Activation: NONE, Method: STANDARD PLATE
  mutagenic call: inactive; negative
Test System: AMES SALMONELLA TYPHIMURIUM, Strain/Indicator: TA1535, Metabolic Activation: RAT LIVER S-9, AROCLOR, Method: STANDARD PLATE
  mutagenic call: inactive; negative
Test System: AMES SALMONELLA TYPHIMURIUM, Strain/Indicator: TA1535, Metabolic Activation: RAT LIVER S-9, PHENOBARBITAL AND BETA-NAPHTHOFLAVONE (30%), Method: PREINCUBATION
  mutagenic call: inactive; negative
Test System: AMES SALMONELLA TYPHIMURIUM, Strain/Indicator: TA1535, Metabolic Activation: RAT LIVER S-9, PHENOBARBITAL AND BETA-NAPHTHOFLAVONE, Method: PREINCUBATION
  mutagenic call: inactive; negative
Test System: AMES SALMONELLA TYPHIMURIUM, Strain/Indicator: TA1535, Metabolic Activation: RAT, LIVER, S-9, AROCLOR 1254, Method: STANDARD PLATE
  mutagenic call: inactive; negative
Test System: AMES SALMONELLA TYPHIMURIUM, Strain/Indicator: TA1537, Metabolic Activation: HAMSTER, LIVER, S-9, AROCLOR 1254, Method: STANDARD PLATE
  mutagenic call: inactive; negative
Test System: AMES SALMONELLA TYPHIMURIUM, Strain/Indicator: TA1537, Metabolic Activation: NONE, Method: STANDARD PLATE
  mutagenic call: inactive; negative
Test System: AMES SALMONELLA TYPHIMURIUM, Strain/Indicator: TA1537, Metabolic Activation: RAT LIVER S-9, AROCLOR, Method: STANDARD PLATE
  mutagenic call: inactive; negative
Test System: AMES SALMONELLA TYPHIMURIUM, Strain/Indicator: TA1537, Metabolic Activation: RAT LIVER S-9, PHENOBARBITAL AND BETA-NAPHTHOFLAVONE (30%), Method: PREINCUBATION
  mutagenic call: active; positive
Test System: AMES SALMONELLA TYPHIMURIUM, Strain/Indicator: TA1537, Metabolic Activation: RAT LIVER S-9, PHENOBARBITAL AND BETA-NAPHTHOFLAVONE, Method: PREINCUBATION
  mutagenic call: inactive; negative
Test System: AMES SALMONELLA TYPHIMURIUM, Strain/Indicator: TA1537, Metabolic Activation: RAT, LIVER S-9, AROCLOR 1254 (10%, 30%), Method: PREINCUBATION
  mutagenic call: inactive; negative; 99.8% pure
Test System: AMES SALMONELLA TYPHIMURIUM, Strain/Indicator: TA1537, Metabolic Activation: RAT, LIVER, S-9, AROCLOR 1254, Method: STANDARD PLATE
  mutagenic call: inactive; negative
Test System: E. COLI, Strain/Indicator: WP2 UVRA, Metabolic Activation: NONE, Method: STANDARD PLATE
  mutagenic call: inactive; negative
Test System: E. COLI, Strain/Indicator: WP2 UVRA, Metabolic Activation: RAT LIVER S-9, AROCLOR, Method: STANDARD PLATE
  mutagenic call: inactive; negative
Test System: E.COLI, Strain/Indicator: WP2UVRA, Metabolic Activation: NONE, Method: PREINCUBATION
  mutagenic call: inactive; negative
Test System: E.COLI, Strain/Indicator: WP2UVRA, Metabolic Activation: RAT LIVER S-9, PHENOBARBITAL AND BETA-NAPHTHOFLAVONE (30%), Method: PREINCUBATION
  mutagenic call: inactive; negative
Test System: E.COLI, Strain/Indicator: WP2UVRA, Metabolic Activation: RAT LIVER S-9, PHENOBARBITAL AND BETA-NAPHTHOFLAVONE, Method: PREINCUBATION
  mutagenic call: inactive; negative
Test System: MOUSE LYMPHOMA, Strain/Indicator: L5178Y (TK+/TK-), Metabolic Activation: NONE, Method: SUSPENSION/PLATE
  mutagenic call: inactive; negative
Test System: MOUSE LYMPHOMA, Strain/Indicator: L5178Y (TK+/TK-), Metabolic Activation: RAT LIVER S-9, AROCLOR, Method: SUSPENSION/PLATE
  mutagenic call: inactive; negative
